# How the values were obtained:
# [1] = test system: epithelial cells derived from the human tertiary bronchus; assay: Short circuit current in cultured tertiary bronchial epithelial cell monolayers in modified Ussing chamber; assay type: cell-based
# From the text: Functional effects of the secretin receptor were probed in epithelial cells derived from the human tertiary bronchus. In brief, tertiary bronchial epithelial were isolated by overnight protease digestion and then cultured until confluency on Snapwell (Costar) permeable supports. The supports were mounted in a modified Ussing chamber, and both luminal and basolateral membranes were bathed in oxygenated Krebs extracellular solution. The cells were voltage clamped to zero to allow changes in short circuit current in response to secretin to be measured. As previously described, 10 μM amiloride was initially added to the luminal membrane (FIG. 4, point a) followed by the addition of 100 nM secretin to the luminal membrane (FIG. 4, point b).
# human tertiary bronchus = assay: Short circuit current across human tertiary bronchus wall in modified Ussing chamber
# tertiary bronchial rings = assay: Relaxation of carbachol precontracted human tertiary bronchial rings in organ bath
# Description: The bronchorelaxant properties of secretin was examined in vitro, in the tertiary bronchus of non-diseased tissue. […] Tissues were precontracted with carbachol at the concentration being that which caused a contraction approximately 60-70% of the maximum, and a cumulative concentration-effect contractile curve (CEC) to secretin (0.01 μM to 3 μM) was constructed on each preparation.
# [2] = test system: primary human, tertiary bronchial epithelial cells; assay: Cl- efflux from primary human tertiary bronchial epithelial cells (MQAE fluorescence); assay type: cell-based
# Description: Ionic movement in tertiary bronchial epithelial cells was further characterised with the use of the Cl^− specific fluorescent probe MQAE (n-(ethoxycarbonylmethyl)-6-methoxyquinolinium bromide; Molecular Probes). In brief, primary human, tertiary bronchial epithelial cells were isolated as described above and cultured in a 96 well plate. On reaching confluency, cells were loaded overnight with 4 mM MQAE. Cells were washed in a chloride containing HEPES buffer, before passive Cl^− efflux was initiated by the addition of a Cl^− free buffer.
# The experiment of example 3a above was repeated using a range of secretin concentrations from 1 to 1000 nM.
# [3] = 10 μM ATP or UTP added to apical membrane of the lung epithelium
smiles,measurement,setting,value
COc1ccc(Cl)cc1C(=O)NCCc1ccc(S(=O)(=O)NC(=O)NC2CCCCC2)cc1 [glibenclamide],suppression of secretin mediated ionic movement,[1]; 500 μM glibenclamide after 100 nM secretin,failed to suppress secretin mediated ionic movement
O=c1ccn([C@@H]2O[C@H](COP(=O)(O)OP(=O)(O)OP(=O)(O)O)[C@@H](O)[C@H]2O)c(=O)[nH]1 [UTP],ionic movement (short circuit current),human tertiary bronchus; [3],stimulate a similar ionic movement of similar magnitude
CC(C)C[C@H](NC(=O)CNC(=O)[C@H](CCC(N)=O)NC(=O)[C@H](CC(C)C)NC(=O)[C@H](CC(C)C)NC(=O)[C@H](CCCNC(=N)N)NC(=O)[C@H](CCC(N)=O)NC(=O)[C@H](CC(C)C)NC(=O)[C@H](CCCNC(=N)N)NC(=O)[C@H](C)NC(=O)CNC(=O)[C@H](CCC(=O)O)NC(=O)[C@H](CCCNC(=N)N)NC(=O)[C@H](CC(C)C)NC(=O)[C@H](CCCNC(=N)N)NC(=O)[C@H](CO)NC(=O)[C@H](CC(C)C)NC(=O)[C@H](CCC(=O)O)NC(=O)[C@H](CO)NC(=O)[C@@H](NC(=O)[C@H](Cc1ccccc1)NC(=O)[C@@H](NC(=O)CNC(=O)[C@H](CC(=O)O)NC(=O)[C@H](CO)NC(=O)[C@@H](N)Cc1c[nH]cn1)[C@@H](C)O)[C@@H](C)O)C(=O)N[C@H](C(N)=O)C(C)C [secretin],ionic movement (short circuit current),"human tertiary bronchus; 3 μM human secretin added to luminal membrane after 10 μM amiloride, non-asthma donors",stimulate ionic movement in a manner consistent with the movement of a negatively charged ion
same,"mean pEC50, relaxation",tertiary bronchial rings; carbachol precontracted tertiary bronchial rings,6.8±0.2
same,relaxations of the carbachol-evoked tone,"tertiary bronchial rings; secretin 0.01 μM to 3 μM, in 7 of the 8 preparations tested",concentration-dependent relaxations
same,mean relaxation as % of the relaxation observed to isoprenaline (1 μM),"tertiary bronchial rings; secretin 3 μM, n=7 preparations from 4 donors",37±11%
same,ionic movement (short circuit current),[1]; 100 nM secretin added to luminal membrane after 10 μM amiloride,stimulated ionic movement in a manner consistent with the movement of a negatively charged ion
same,Cl- efflux (changes in MQAE fluorescence),[2]; 12.5 nM secretin,stimulated Cl^− efflux
same,Cl- efflux (changes in MQAE fluorescence),[2]; 100 nM secretin,stimulated Cl^− efflux
same,Maximal secretin stimulated Cl- efflux,"[2]; compared with Prostaglandin E2 (10 μM), secretin 1 to 1000 nM",of a similar magnitude to that observed to Prostaglandin E2
same,"Log EC50 (M), Cl- efflux","[2]; printed as negative Log EC50, mean ± s.e.mean, 2 to 6 independent experiments, cells from 6 donors, normalised to PGE2",-7.64±0.24 M
"O=C(O)c1cc([N+](=O)[O-])ccc1NCCCc1ccccc1 [NPPB, 5-nitro-2-(3-phenylpropyl-amino)benzoic acid]",effect on 100 nM secretin mediated changes in fluorescence,[2]; 100 μM NPPB,abolished
Nc1ncnc2c1ncn2[C@@H]1O[C@H](COP(=O)(O)OP(=O)(O)OP(=O)(O)O)[C@@H](O)[C@H]1O [ATP],ionic movement (short circuit current),human tertiary bronchus; [3],stimulate a similar ionic movement of similar magnitude
